Source: patent publication US6897212B2, “Treatment of oppositional defiant disorder and conduct disorder with 5-aminoalkyl-4,5,6,7-tetrahydro-4-oxyindolones” (Afecta Pharmaceuticals, priority 2002, dated 2005)
Read-outs that look alike come from different tables or passages of the source. Values belong to the compound of their own block, whether it stands above or below them.

Tests used:
[1] = system: patients with refractory depression; conditions: 19 patients with refractory depression; molindone 10-30 mg/day; cited from earlier work
Serotonin 2A receptor = target: T1, Serotonin 2A receptor (Homo sapiens, UniProt P28223); assay: binding affinity to Serotonin 2A receptor in cell membrane homogenates; conditions: for Ki: cell membrane homogenates, read-out: pKi 5-HT2A (converted); for pKi ratio 5-HT2A/D2: ratio of Serotonin 2A binding to Dopamine 2 binding
T1 construct: membrane homogenates
Text: The formulae of the compounds are [drawing 6]
Here, the pKi value is a measure for the binding affinity of the test compounds to the receptors present in cell membrane homogenates. D1 refers to the Dopamine 1 receptor, D2 refers to the Dopamine 2 receptor, and 5-HT2A refers to the Serotonin 2A receptor, while the pKi ratio presents the ratio of Serotonin 2A binding to Dopamine 2 binding.

5-HT2A = 5-HT2A (Homo sapiens, UniProt P28223); assay: in vitro activity (pA2) on cells expressing serotonine receptors
Dopamine 1 receptor = Dopamine 1 receptor (Homo sapiens, UniProt P21728); assay: binding affinity to Dopamine 1 receptor in cell membrane homogenates
Dopamine 2 receptor = Dopamine 2 receptor (Homo sapiens, UniProt P14416); assay: binding affinity to Dopamine 2 receptor in cell membrane homogenates
patients with ODD = assay: treatment of patients with oppositional defiant disorder and conduct disorder; format: in vivo, human
Text: The side effect is totally unacceptable to teenagers.
Case histories are set out in the following examples, which are offered by way of illustration and are not intended to limit the invention in any manner.

[2] = human, in vivo
[3] = cited from earlier work
monoamine oxidase = conditions: in vitro and in vivo; cited from earlier work
[4] = system: children with undersocialized conduct disorder, aggressive type; conditions: cited from earlier work; for behavior ratings: double-blind study, 31 children, ages 6-11 years (Greenhill et al., 1985)
[5] = cited from earlier work; remark: listed apart in the source
[6] = weight gain in treated patients

T1 sequence (P28223 whole entry): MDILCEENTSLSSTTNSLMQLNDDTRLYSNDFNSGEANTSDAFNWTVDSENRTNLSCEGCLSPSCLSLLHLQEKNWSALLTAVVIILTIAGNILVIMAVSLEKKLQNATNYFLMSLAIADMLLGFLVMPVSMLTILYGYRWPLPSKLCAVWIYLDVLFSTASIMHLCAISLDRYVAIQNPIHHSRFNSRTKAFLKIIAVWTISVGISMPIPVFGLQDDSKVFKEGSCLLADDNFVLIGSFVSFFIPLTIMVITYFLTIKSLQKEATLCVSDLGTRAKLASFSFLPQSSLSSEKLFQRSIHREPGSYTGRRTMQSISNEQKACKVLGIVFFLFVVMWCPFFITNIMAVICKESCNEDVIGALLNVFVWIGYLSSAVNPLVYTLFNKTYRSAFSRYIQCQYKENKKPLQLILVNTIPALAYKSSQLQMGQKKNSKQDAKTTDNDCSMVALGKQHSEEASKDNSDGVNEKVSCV
Chain of Dopamine 2 receptor (P14416 whole entry): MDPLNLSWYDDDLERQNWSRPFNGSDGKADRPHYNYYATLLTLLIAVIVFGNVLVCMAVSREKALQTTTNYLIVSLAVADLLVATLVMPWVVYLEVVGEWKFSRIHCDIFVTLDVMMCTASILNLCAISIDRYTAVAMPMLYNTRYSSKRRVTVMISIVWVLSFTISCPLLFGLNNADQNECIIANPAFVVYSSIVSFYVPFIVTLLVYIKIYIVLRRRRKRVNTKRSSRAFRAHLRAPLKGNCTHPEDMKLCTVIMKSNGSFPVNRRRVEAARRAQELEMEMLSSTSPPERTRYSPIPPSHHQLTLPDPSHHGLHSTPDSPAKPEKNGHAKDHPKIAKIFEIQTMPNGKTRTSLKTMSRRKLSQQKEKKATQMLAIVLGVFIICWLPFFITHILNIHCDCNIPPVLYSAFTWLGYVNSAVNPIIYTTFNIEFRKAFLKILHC
Chain of 5-HT2A (P28223 whole entry, species assumed): as the sequence (P28223 whole entry) above
Chain of Dopamine 1 receptor (P21728 whole entry): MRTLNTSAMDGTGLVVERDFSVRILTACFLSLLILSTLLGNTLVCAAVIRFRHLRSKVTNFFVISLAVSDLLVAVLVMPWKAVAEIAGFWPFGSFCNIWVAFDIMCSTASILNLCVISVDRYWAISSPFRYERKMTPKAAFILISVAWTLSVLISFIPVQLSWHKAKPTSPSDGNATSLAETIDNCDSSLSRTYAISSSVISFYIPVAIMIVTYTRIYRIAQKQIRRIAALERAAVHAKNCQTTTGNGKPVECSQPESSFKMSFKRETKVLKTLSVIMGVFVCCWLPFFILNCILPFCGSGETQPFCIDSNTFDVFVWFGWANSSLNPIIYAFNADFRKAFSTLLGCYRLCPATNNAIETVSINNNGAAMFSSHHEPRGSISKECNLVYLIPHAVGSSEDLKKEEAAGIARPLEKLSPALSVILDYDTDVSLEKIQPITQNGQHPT

Compound: N[C@@H]1C[C@H]1c1ccccc1 (racemic) [tranylcypromine]
patients showing definite improvement [1]: two

Compound: CCc1c(C)[nH]c2c1C(=O)C(CCN1CCOCC1)CC2 (stereo not drawn) [Compound 1]
Ki (Serotonin 2A receptor): 912 nM | pKi ratio 5-HT2A/D2 (Serotonin 2A receptor): 0.97 | Kb (5-HT2A): 105 nM | Ki (Dopamine 1 receptor): 2140 nM | Ki (Dopamine 2 receptor): 589 nM

Compound: CCc1c(C)[nH]c2c1C(=O)C(CCN1CCN(c3ccccc3OC)CC1)CC2 (stereo not drawn) [Compound 2]
Ki (Serotonin 2A receptor): 91.2 nM | pKi ratio 5-HT2A/D2 (Serotonin 2A receptor): 0.97 | Kb (5-HT2A): 31.6 nM | Ki (Dopamine 2 receptor): 28.2 nM

weight gain [2]: rarely, if ever, causes weight gain
Compound: CCc1c(C)[nH]c2c1C(=O)C(CN1CCOCC1)CC2 (stereo not drawn) [Molindone, 3-ethyl-6,7-dihydro-2-methyl-5-(morpholinomethyl)indol-4-(5H)-one]
effect on tantrums, hitting, rages and swearing (patients with ODD; Example 1, patient three, ¼ of a 5 mg tablet every 4 hours): immediate cessation of the tantrums, hitting and rages and less swearing | effect of raised dose (patients with ODD; Example 1, patient three, ½ of a 5 mg tablet every 4 hours after three months): more effective | effect on tantrums and aggressive behaviors (patients with ODD; Example 2, patient two, 2.5 mg every 4 hours): the tantrums and aggressive behaviors disappeared | persistence of effect (patients with ODD; Example 2, patient two, after 6 months of use): still effective | effect on behavior after molindone was again initiated (patients with ODD; Example 3, patient one): immediate and dramatic improvement in the behavior | effect on oppositional behavior (patients with ODD; Example 3, patient one, molindone 10 mg bid): dramatic decrease in oppositional behavior | treatment of ODD (patients with ODD; more than 50 patients with ODD, usual dose 1.25 to 10 mg every 4 hours): successfully treated | prolongation of half-life ([3]; concomitant lithium therapy): at least fourfold | elimination half-life ([3]; humans): approximately 2 hours | inhibition of monoamine oxidase (monoamine oxidase): inhibits the enzyme monoamine oxidase in vitro and in vivo | patients showing definite improvement [1]: Five of the 10 patients | behavior ratings [4]: improvement in behavior ratings | aggressive behavior and Nurses' Global Assessment Scale ([4]; open trial, six patients, ages 6-11 years (Greenhill et al., 1981)): some improvement

Compound: CN(C)CCCN1c2ccccc2Sc2ccc(Cl)cc21 [chlorpromazine]
fraction in plasma not bound to protein [5]: 0.13%

Compound: O=C(CCCN1CCC(O)(c2ccc(Cl)cc2)CC1)c1ccc(F)cc1 [haloperidol]
fraction in plasma not bound to protein [5]: 9%

Compound: Cc1cc2c(s1)Nc1ccccc1N=C2N1CCN(C)CC1 [olanzapine]
weight gain ([6]; Example 3, patient one): significant weight gain | weight gain ([6]; patients, especially children): unacceptable level of weight gain, sometimes approaching a pound a day

Compound: Cc1nc2n(c(=O)c1CCN1CCC(c3noc4cc(F)ccc34)CC1)CCCC2 [risperidone]
effect on oppositional behavior (patients with ODD; Example 3, patient one, used instead of molindone): significant improvement in the oppositional behavior | treatment of ODD (patients with ODD; unpublished observations): capable of effectively treating ODD | weight gain ([6]; Example 3, patient one): significant weight gain | weight gain ([6]; patients, especially children): unacceptable level of weight gain, sometimes approaching a pound a day

Compound: CSc1ccc2c(c1)N(CCC1CCCCN1C)c1ccccc1S2 (stereo not drawn) [thioridazine]
behavior ratings [4]: improvement in behavior ratings
